Patent US10421765B2, “Tetrahydropyrido[4,3-d]pyrimidine inhibitors of ATR kinase” (Board of Regents, The University of Texas System, priority 2017, dated 2019)
Like-named read-outs stand apart in the source and are kept apart here.

Assays:
[1] = tested on: ATR-driven phosphorylation of Chk1 kinase at Serine 345 in HT-29 colorectal adenocarcinoma cells; assay: pCHK1 cellular assay (CHK1 p-Ser345 AlphaScreen SureFire); type: cell-based; conditions: 4-nitroquinoline N-oxide 12 uM, read-out: Cell IC50 (pCHK1 IC50 values)
Outline: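 HT-29 cells seeded overnight, treated with 1:3 serially diluted compound for 90 minutes at 37° C., then 12 uM (final) 4-nitroquinoline N-oxide for 120 minutes. Lysates read for Chk1 p-Ser345 by AlphaScreen SureFire; IC50 from four-parameter logistic fit, normalized to DMSO (max) and 5 uM ATR inhibitor (min).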

[2] = target: ATR/ATRIP complex (Homo sapiens (Human), UniProt Q13535); assay: ATR/ATRIP enzymatic assay (Caliper-based); type: biochemical; conditions: FAM-labeled RAD17 peptide, ATP
Chain of ATR/ATRIP complex (Q13535 whole entry): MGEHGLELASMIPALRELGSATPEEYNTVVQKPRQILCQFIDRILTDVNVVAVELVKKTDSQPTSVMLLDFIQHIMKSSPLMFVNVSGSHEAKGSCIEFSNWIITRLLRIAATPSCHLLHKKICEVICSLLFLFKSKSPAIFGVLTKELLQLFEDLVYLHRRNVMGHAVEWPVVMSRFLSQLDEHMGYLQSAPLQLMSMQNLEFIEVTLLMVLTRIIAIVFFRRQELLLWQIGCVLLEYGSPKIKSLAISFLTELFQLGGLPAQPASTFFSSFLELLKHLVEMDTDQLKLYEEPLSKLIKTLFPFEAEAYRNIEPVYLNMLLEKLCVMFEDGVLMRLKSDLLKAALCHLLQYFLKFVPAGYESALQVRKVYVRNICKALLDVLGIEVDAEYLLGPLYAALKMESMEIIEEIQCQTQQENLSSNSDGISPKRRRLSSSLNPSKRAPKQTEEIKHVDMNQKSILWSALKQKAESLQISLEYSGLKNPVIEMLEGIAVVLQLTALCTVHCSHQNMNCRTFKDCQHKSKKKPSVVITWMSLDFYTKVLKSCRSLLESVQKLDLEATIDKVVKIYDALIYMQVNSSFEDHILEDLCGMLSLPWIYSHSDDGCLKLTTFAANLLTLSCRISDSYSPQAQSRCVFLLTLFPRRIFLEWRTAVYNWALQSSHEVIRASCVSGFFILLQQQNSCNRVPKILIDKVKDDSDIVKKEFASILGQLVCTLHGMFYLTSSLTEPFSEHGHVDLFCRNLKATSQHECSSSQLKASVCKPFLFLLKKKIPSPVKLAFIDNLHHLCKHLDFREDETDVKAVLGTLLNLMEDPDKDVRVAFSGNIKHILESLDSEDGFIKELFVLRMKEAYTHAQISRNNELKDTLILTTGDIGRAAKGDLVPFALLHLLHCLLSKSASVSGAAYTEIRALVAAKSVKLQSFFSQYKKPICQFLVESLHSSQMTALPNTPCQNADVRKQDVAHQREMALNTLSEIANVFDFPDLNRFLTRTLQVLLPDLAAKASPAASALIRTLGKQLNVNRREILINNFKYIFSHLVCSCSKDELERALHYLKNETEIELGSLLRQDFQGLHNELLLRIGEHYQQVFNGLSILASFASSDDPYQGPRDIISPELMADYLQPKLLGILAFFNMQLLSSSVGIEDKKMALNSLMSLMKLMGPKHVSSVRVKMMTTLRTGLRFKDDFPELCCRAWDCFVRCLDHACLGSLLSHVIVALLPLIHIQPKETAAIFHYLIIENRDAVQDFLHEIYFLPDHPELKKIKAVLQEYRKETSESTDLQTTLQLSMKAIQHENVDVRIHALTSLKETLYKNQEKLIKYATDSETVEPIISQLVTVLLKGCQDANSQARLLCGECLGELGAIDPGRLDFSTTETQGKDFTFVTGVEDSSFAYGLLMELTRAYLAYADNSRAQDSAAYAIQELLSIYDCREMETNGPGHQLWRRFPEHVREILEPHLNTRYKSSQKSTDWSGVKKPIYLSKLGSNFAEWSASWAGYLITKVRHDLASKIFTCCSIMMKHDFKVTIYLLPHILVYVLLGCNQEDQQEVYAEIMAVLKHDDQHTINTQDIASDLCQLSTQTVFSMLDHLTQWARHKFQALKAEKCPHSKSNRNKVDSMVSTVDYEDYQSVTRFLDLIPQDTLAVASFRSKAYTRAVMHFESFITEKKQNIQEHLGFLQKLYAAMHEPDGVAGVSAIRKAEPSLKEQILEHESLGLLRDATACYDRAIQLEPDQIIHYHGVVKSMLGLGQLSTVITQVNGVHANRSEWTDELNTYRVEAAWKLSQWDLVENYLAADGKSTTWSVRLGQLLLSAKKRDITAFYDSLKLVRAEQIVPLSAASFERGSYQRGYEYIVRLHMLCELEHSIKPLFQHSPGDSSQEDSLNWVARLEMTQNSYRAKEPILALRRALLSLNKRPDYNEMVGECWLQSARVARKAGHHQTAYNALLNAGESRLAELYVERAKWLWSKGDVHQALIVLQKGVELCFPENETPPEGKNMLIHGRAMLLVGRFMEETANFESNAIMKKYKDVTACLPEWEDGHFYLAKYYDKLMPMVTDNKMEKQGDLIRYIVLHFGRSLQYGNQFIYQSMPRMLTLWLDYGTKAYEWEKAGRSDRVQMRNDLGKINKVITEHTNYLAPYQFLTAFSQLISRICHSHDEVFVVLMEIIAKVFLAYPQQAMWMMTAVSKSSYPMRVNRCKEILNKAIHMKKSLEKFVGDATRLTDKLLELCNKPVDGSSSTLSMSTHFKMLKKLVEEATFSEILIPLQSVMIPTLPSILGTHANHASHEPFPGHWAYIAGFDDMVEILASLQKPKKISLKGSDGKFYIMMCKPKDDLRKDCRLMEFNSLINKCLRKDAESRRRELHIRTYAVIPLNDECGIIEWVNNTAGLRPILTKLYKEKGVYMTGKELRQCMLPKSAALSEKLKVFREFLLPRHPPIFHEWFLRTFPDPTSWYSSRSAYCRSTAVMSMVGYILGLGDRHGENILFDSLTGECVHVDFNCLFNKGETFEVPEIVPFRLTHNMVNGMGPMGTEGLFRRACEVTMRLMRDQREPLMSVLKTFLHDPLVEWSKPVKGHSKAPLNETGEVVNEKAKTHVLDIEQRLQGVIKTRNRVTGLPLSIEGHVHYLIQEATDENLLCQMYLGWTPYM
Chain of ATR/ATRIP complex (Q8WXE1 whole entry partner): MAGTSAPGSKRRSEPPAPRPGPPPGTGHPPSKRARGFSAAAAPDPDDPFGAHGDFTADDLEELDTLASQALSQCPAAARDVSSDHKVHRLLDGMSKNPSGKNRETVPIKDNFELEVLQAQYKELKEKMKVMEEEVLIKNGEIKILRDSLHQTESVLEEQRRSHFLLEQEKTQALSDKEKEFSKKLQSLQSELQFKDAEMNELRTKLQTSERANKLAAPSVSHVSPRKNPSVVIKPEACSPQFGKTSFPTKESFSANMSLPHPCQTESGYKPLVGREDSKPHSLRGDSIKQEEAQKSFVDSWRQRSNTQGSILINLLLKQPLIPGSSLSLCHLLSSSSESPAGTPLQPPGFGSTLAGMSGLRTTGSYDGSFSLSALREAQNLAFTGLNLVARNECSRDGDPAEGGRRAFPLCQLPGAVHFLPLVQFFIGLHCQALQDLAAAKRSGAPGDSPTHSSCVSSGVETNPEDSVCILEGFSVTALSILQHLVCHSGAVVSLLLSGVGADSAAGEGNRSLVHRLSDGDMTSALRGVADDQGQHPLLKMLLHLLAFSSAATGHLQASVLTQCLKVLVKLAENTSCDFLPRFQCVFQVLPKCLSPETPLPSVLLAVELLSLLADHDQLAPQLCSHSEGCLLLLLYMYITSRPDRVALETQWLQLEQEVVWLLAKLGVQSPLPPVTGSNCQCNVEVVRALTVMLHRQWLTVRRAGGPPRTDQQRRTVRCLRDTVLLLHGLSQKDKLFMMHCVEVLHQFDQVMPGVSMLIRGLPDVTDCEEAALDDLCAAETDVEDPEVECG
Outline: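 FLAG-TEV-ATR/His6-ATRIP co-expressed in HEK293 and anti-FLAG purified. Compound preincubated 30 min at 28 °C with enzyme (2x solution 4 nM), then FAM-RAD17 peptide (2x solution 10 uM, 2 μM ATP) added for 6 h at 28 °C; HEPES pH 8, 10 mM MnCl2. Caliper conversion read-out, IC50 from four-parameter fit.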

[3] = Homo sapiens, HT-29, HT-29 cells
[4] = read-out: ATR/ATRIP Enzyme IC50
[5] = estimated range, read-out: ATR/ATRIP Enzyme IC50 (estimated class)

| IC50 [1, 3] | IC50 [2, 4] | IC50 [2, 5] | Structure (SMILES) | IC50 ([1]; HT-29 cells) |
| --- | --- | --- | --- | --- |
| 183 nM | 840 nM | – | C[C@@H]1Cc2ncnc([C@@H]3CCN(S(C)(=O)=O)C3)c2CN1c1ccnc2[nH]ccc12 [Example 57a, (R)-7-methyl-4-((R)-1-(methylsulfonyl)pyrrolidin-3-yl)-6-(1H-pyrrolo[2,3-b]pyridin-4-yl)-5,6,7,8-tetrahydropyrido[4,3-d]pyrimidine] | – |
| 265 nM | 336 nM | – | C[C@@H]1Cc2ncnc(C3CCN(S(C)(=O)=O)CC3)c2CN1c1cc(C#N)nc2[nH]ccc12 [Example 98, (R)-4-(7-methyl-4-(1-(methylsulfonyl)piperidin-4-yl)-7,8-dihydro-pyrido[4,3-d]pyrimidin-6(5H)-yl)-1H-pyrrolo-[2,3-b]pyridine-6-carbonitrile] | – |
| 15 nM | 87 nM | – | CC(C)Oc1cc(N2Cc3c(ncnc3C3CCN(S(C)(=O)=O)CC3)C[C@H]2C)c2cc[nH]c2n1 [Example 93, (R)-6-(6-isopropoxy-1H-pyrrolo[2,3-b]pyridin-4-yl)-7-methyl-4-(1-(methylsulfonyl)piperidin-4-yl)-5,6,7,8-tetrahydro-pyrido[4,3-d]pyrimidine] | – |
| 56 nM | 364 nM | – | C[C@@H]1Cc2ncnc(N3CCCC(C#N)C3)c2CN1c1ccnc2[nH]ccc12 (stereo partly drawn) [Example 83, 1-((R)-7-methyl-6-(1H-pyrrolo[2,3-b]pyridin-4-yl)-5,6,7,8-tetrahydro-pyrido[4,3-d]pyrimidin-4-yl)piperidine-3-carbonitrile] | – |
| 10 nM | 87 nM | – | C[C@@H]1Cc2ncnc(N3CCC[C@@H](C(C)(C)O)C3)c2CN1c1cc(Cl)nc2[nH]ccc12 [Example 70, 2-((R)-1-((R)-6-(6-chloro-1H-pyrrolo[2,3-b]-pyridin-4-yl)-7-methyl-5,6,7,8-tetrahydropyrido-[4,3-d]pyrimidin-4-yl)-piperidin-3-yl)propan-2-ol] | – |
| 14 nM | 103 nM | – | C[C@@H]1Cc2ncnc(N3CC(C#N)C3)c2CN1c1cc(Cl)nc2[nH]ccc12 [Example 79, (R)-1-(6-(6-chloro-1H-pyrrolo[2,3-b]pyridin-4-yl)-7-methyl-5,6,7,8-tetrahydropyrido[4,3-d]-pyrimidin-4-yl)azetidine-3-carbonitrile] | – |
| 83 nM | 113 nM | – | C[C@@H]1Cc2ncnc(N3CC(NS(=O)(=O)C4CC4)C3)c2CN1c1ccnc2[nH]ccc12 [Example 85, (R)-N-(1-(7-methyl-6-(1H-pyrrolo[2,3-b]-pyridin-4-yl)-5,6,7,8-tetrahydropyrido[4,3-d]-pyrimidin-4-yl)azetidin-3-yl)cyclopropane-sulfonamide] | – |
| 48 nM | 475 nM | – | COC1CCN(c2ncnc3c2CN(c2cc(Cl)nc4[nH]ccc24)[C@H](C)C3)CC1 [Example 68, (R)-6-(6-chloro-1H-pyrrolo[2,3-b]pyridin-4-yl)-4-(4-methoxy-piperidin-1-yl)-7-methyl-5,6,7,8-tetrahydro-pyrido[4,3-d]pyrimidine] | – |
| – | 1470 nM | – | C[C@@H]1Cc2ncnc([C@H]3CCN(S(C)(=O)=O)C3)c2CN1c1ccnc2[nH]ccc12 [Example 57b, (R)-7-methyl-4-((S)-1-(methylsulfonyl)pyrrolidin-3-yl)-6-(1H-pyrrolo[2,3b]-pyridin-4-yl)-5,6,7,8-tetrahydropyrido[4,3-d]pyrimidine] | 394 nM |

The next lines start with the compound.

| Structure (SMILES) | IC50 [1, 3] | IC50 [2, 4] | IC50 [2, 5] | IC50 ([1]; HT-29 cells) |
| --- | --- | --- | --- | --- |
| C[C@@H]1Cc2ncnc(N3CCC(O)CC3)c2CN1c1cc(Cl)nc2[nH]ccc12 [Example 12, (R)-1-(6-(6-Chloro-1H-pyrrolo[2,3-b]pyridin-4-yl)-7-methyl-5,6,7,8-tetrahydropyrido[4,3-d]pyrimidin-4-yl)piperidin-4-ol] | 28 nM | 518 nM | – | – |
| C[C@@H]1Cc2ncnc(N3CCC(C(C)(C)O)CC3)c2CN1c1cc(Cl)nc2[nH]ccc12 [Example 30, 2-{1-[(7R)-6-{6-chloro-1H-pyrrolo[2,3-b]pyridin-4-yl}-7-methyl-5H,6H,7H,8H-pyrido[4,3-d]pyrimidin-4-yl]-piperidin-4-yl}propan-2-ol] | 12 nM | 329 nM | – | – |
| CCC1(O)CCN(c2ncnc3c2CN(c2cc(Cl)nc4[nH]ccc24)[C@H](C)C3)CC1 [Example 46, (R)-1-(6-(6-Chloro-1H-pyrrolo[2,3-b]pyridin-4-yl)-7-methyl-5,6,7,8-tetrahydropyrido[4,3-d]pyrimidin-4-yl)-4-ethylpiperidin-4-ol] | 21 nM | 282 nM | – | – |
| C[C@@H]1Cc2ncnc(N3C[C@H]4CC[C@@H](C3)[C@@H]4NS(C)(=O)=O)c2CN1c1cc(Cl)nc2[nH]ccc12 [Example 38, N-((1R,5S)-(8-anti)-3-((R)-6-(6-chloro-1H-pyrrolo[2,3-b]pyridin-4-yl)-7-methyl-5,6,7,8-tetrahydropyrido[4,3-d]pyrimidin-4-yl)-3-azabicyclo[3.2.1]octan-8-yl)methanesulfonamide] | 83 nM | 929 nM | – | – |
| C[C@@H]1Cc2ncnc(N3CCS(=O)(=O)CC3)c2CN1c1cc(Cl)nc2[nH]ccc12 [Example 22, 4-[(7R)-6-{6-chloro-1H-pyrrolo[2,3-b]pyridin-4-yl}-7-methyl-5H,6H,7H,8H-pyrido[4,3-d]pyrimidin-4-yl]-1λ^6-thiomorpholine-1,1-dione] | 554 nM | – | 1000 to 10000 nM | – |
| CNC(=O)C1CN(c2ncnc3c2CN(c2cc(Cl)nc4[nH]ccc24)[C@H](C)C3)C1 [Example 34, 1-[(7R)-6-{6-chloro-1H-pyrrolo[2,3-b]pyridin-4-yl}-7-methyl-5H,6H,7H,8H-pyrido[4,3-d]pyrimidin-4-yl]-N-methylazetidine-3-carboxamide] | 87 nM | 429 nM | – | – |
| CS(=O)(=O)N1CCC(c2ncnc3c2CN(c2ccnc4[nH]ccc24)[C@@H](CF)C3)CC1 [Example 52a, (R)-7-(fluoromethyl)-4-(1-(methylsulfonyl)piperidin-4-yl)-6-(1H-pyrrolo[2,3-b]pyridin-4-yl)-5,6,7,8-tetrahydropyrido[4,3-d]pyrimidine] | 10000 nM | 30000 nM | – | – |
| CCOc1cc(N2Cc3c(ncnc3C3CCN(S(C)(=O)=O)CC3)C[C@@H]2CF)c2cc[nH]c2n1 [Example 55a, (R)-6-(6-ethoxy-1H-pyrrolo[2,3-b]pyridin-4-yl)-7-(fluoromethyl)-4-(1-(methylsulfonyl)piperidin-4-yl)-5,6,7,8-tetrahydropyrido[4,3-d]pyrimidine] | 2360 nM | 25000 nM | – | – |
| C[C@@H]1Cc2ncnc(N3CCC(S(C)(=O)=O)C3)c2CN1c1cc(Cl)nc2[nH]ccc12 (stereo partly drawn) [Example 41, (7R)-6-(6-chloro-1H-pyrrolo[2,3-b]pyridin-4-yl)-7-methyl-4-(3-(methylsulfonyl)pyrrolidin-1-yl)-5,6,7,8-tetrahydropyrido[4,3-d]pyrimidine] | 36 nM | 472 nM | – | – |
| C[C@@H]1Cc2ncnc(C3C[C@H]4CC[C@@H](C3)N4S(C)(=O)=O)c2CN1c1cc(Cl)nc2[nH]ccc12 (single isomer, unassigned) [Example 11b] | – | 329 nM | – | 29 nM |
| C[C@@H]1Cc2ncnc(N3CC(S(C)(=O)=O)C3)c2CN1c1cc(Cl)nc2[nH]ccc12 [Example 32, 1-[(7R)-6-{6-chloro-1H-pyrrolo[2,3-b]pyridin-4-yl}-7-methyl-5H,6H,7H,8H-pyrido[4,3-d]pyrimidin-4-yl]-3-methanesulfonylazetidine] | 21 nM | 223 nM | – | – |
| COC(=O)N1CCC(c2ncnc3c2CN(c2cc(Cl)nc4[nH]ccc24)[C@H](C)C3)CC1 [Example 25, methyl 4-[(7R)-6-{6-chloro-1H-pyrrolo[2,3-b]pyridin-4-yl}-7-methyl-5H,6H,7H,8H-pyrido [4,3-d]pyrimidin-4-yl]piperidine-1-carboxylate] | 28 nM | 899 nM | – | – |
| CCOc1cc(N2Cc3c(ncnc3C3CCN(S(C)(=O)=O)CC3)C[C@H]2CF)c2cc[nH]c2n1 [Example 55b, (S)-6-(6-ethoxy-1H-pyrrolo[2,3-b]pyridin-4-yl)-7-(fluoromethyl)-4-(1-(methylsulfonyl)piperidin-4-yl)-5,6,7,8-tetrahydropyrido[4,3-d]pyrimidine] | 30 nM | 311 nM | – | – |
| C[C@@H]1Cc2ncnc(N3CCCN(S(C)(=O)=O)CC3)c2CN1c1ccnc2[nH]ccc12 [Example 19, 1-methanesulfonyl-4-[(7R)-7-methyl-6-{1H-pyrrolo[2,3-b]pyridin-4-yl}-5H,6H,7H,8H-pyrido[4,3-d]pyrimidin-4-yl]-1,4-diazepane] | 162 nM | – | 1000 to 10000 nM | – |
| CCC(=O)NC1[C@@H]2CC[C@H]1CN(c1ncnc3c1CN(c1cc(Cl)nc4[nH]ccc14)[C@H](C)C3)C2 (stereo partly drawn) [Example 27, N-[3-[(7R)-6-{6-chloro-1H-pyrrolo[2,3-b]pyridin-4-yl}-7-methyl-5H,6H,7H,8H-pyrido[4,3-d]pyrimidin-4-yl]-3-aza-bicyclo[3.2.1]octan-8-yl}propanamide] | 38 nM | – | 1000 to 10000 nM | – |
| C[C@@H]1Cc2ncnc(N3C[C@H]4CC[C@@H](C3)C4NS(C)(=O)=O)c2CN1c1cc(Cl)nc2[nH]ccc12 (stereo partly drawn) [Example 13, N-((1R,5S)-3-((R)-6-(6-Chloro-1H-pyrrolo[2,3-b]pyridin-4-yl)-7-methyl-5,6,7,8-tetrahydropyrido[4,3-d]pyrimidin-4-yl)-3-azabicyclo[3.2.]octan-8-yl)methanesulfonamide] | 29 nM | 114 nM | – | – |
